According to patent US20160237160A1, “ANTI-TWEAKR ANTIBODIES AND USES THEREOF” (BAYER PHARMA AKTIENGESELLSCHAFT, priority 2013, published 2016):
pKd: −log10 of the molar value. Where two headings read alike, the source gives them in different places.

Assays:
[1] = test system: CXF1103 patient-derived colorectal cancer model; experiment: Xenograft anti-tumor efficacy; format: in vivo, mice; conditions: tumor weight, TPP-2090 10 mg/kg twice weekly for 4 weeks
Procedure: (§1) After tumor growth to a size of approximately 40 mm^2 mice were randomized into control and treatment groups with a respective group size of n=8-10. Mice were treated with various doses of anti-TWEAKR antibodies diluted in PBS by intravenous injection (i.v.) into the tail vein with a twice per week schedule (q4dx3: applications twice per week, three applications in total; q4dx8: applications twice per week, eight applications in total). Combination therapy partners such as Regorafenib (10 mg/kg daily, per os) and the PI3K-inhibitor 1 (10 mg/kg, BID, 2d on, 5d off (applications twice daily on two consecutive days, followed by five days without treatment), i.v.) were diluted in their respective formulations whereas the standard of care therapies Irinotecan (5 mg/kg, 4d on, 3d off (applications once daily on four consecutive days followed by three days without treatment) i.v.) and Paclitaxel (16 mg/kg, q7dx4 (applications once per week, four applications in total), i.v.) were diluted in 0.9% NaCl. Animals injected with PBS served as the control (vehicle) group. The applied volume of the compounds was 5 ml/kg body weight per mouse.
(§2) Tumor growth was monitored 2-3 times per week by caliper measurement (length×width in mm) as well as body weight (in g). At the end of study tumors were dissected, weighted and used for the calculation of tumor-to-control (T/C) ratios (mean tumor weight of treated animals divided by mean tumor weight of control/vehicle animals). […] 2×10^6 tumor cells in 100% Matrigel were s.c. inoculated in female nude mice. After 7d established tumors with a size of about 40 mm^2 were treated with 0.3 mg/kg, 1 mg/kg and 3 mg/kg of antibodies (i.v., q4dx3: applications twice per week, three applications in total).
(§3) Animal studies were conducted as described in example 8 for further human colorectal cancer tumor cell lines Colo205 and LoVo and for further human colorectal cancer patient-derived models Co7553, Co5896, Co5676, Co5841, CXF 1103 and CXF 533. […] The formulation of regorafenib is described in example 8.

[2] = test system: CXF533 patient-derived colorectal cancer model; experiment: Xenograft anti-tumor efficacy; format: in vivo, mice; conditions: tumor weight, TPP-2090 10 mg/kg twice weekly for 4 weeks
Procedure: as §1, §2, §3

[3] = test system: Co5676 patient-derived colorectal cancer model; experiment: Xenograft anti-tumor efficacy; format: in vivo, mice; conditions: tumor area, TPP-2090 10 mg/kg twice weekly for 4 weeks
Procedure: as §1, §2, §3

[4] = test system: Co5841 patient-derived colorectal cancer model; experiment: Xenograft anti-tumor efficacy; format: in vivo, mice; conditions: tumor weight, TPP-2090 10 mg/kg twice weekly for 4 weeks
Procedure: as §1, §2, §3

[5] = test system: Colo205 xenograft (colorectal cancer); experiment: Xenograft anti-tumor efficacy; format: in vivo, mice; conditions: tumor weight, TPP-2090 10 mg/kg twice weekly for 4 weeks
Procedure: as §1, §2, §3

[6] = test system: LoVo xenograft (colorectal cancer); experiment: Xenograft anti-tumor efficacy; format: in vivo, mice; conditions: tumor weight, TPP-2090 10 mg/kg twice weekly for 4 weeks
Procedure: as §1, §2, §3

[7] = test system: Co7553 patient-derived colorectal cancer model; experiment: Xenograft anti-tumor efficacy; format: in vivo, mice; conditions: tumor weight, TPP-2090 10 mg/kg twice weekly for 4 weeks
Excerpt: Tumor growth was monitored 2-3 times per week by caliper measurement (length×width in mm) as well as body weight (in g). […]

[8] = target: T1, TWEAKR protein (TPP-2305) (Homo sapiens, UniProt Q9NP84); experiment: Biacore monovalent KD with TWEAKR protein; format: binding; conditions: first order 1:1 binding model
T1 construct: TPP-2305; hTNFRSF12Aaa28-80; Human; 30R-AT080; 168; purchased Fitzgerald Inc 30R-AT080
Procedure: Binding affinities of anti-TWEAKR antibodies were determined by surface plasmon resonance analysis on a Biacore T100 instrument (GE Healthcare Biacore, Inc.). Antibodies were immobilized onto a CM5 sensor chip through an indirect capturing reagent, anti-human IgG(Fc). Reagents from the “Human Antibody Capture Kit” (BR-1008-39, GE Healthcare Biacore, Inc.) were used as described by the manufacturer. Anti-TWEAKR antibodies were injected at a concentration of 10 μg/ml at 10 μl/min for 10 sec.
Sensorgrams were generated after in-line reference cell correction followed by buffer sample subtraction. The dissociation equilibrium constant (KD) was calculated based on the ratio of association (kon) and dissociation rated (koff) constants, obtained by fitting sensorgrams with a first order 1:1 binding model.

[9] = target: T2, TWEAKR-Fc fusion protein (TPP-2202), aa 28-80 (Homo sapiens, UniProt Q9NP84); experiment: ELISA with TWEAKR full ectodomain; format: binding; conditions: coating 1 μg/ml; 0.08 and 0.3 μg/ml biotinylated IgG
T2 construct: the full ectodomain 28-80 including the N- and C-terminus; made in house
Excerpt: (§4) In a first approach to characterize the binding epitope of the aforementioned antibodies, a N- and C-terminal truncation mutant of the TWEAKR ectodomain was generated and tested for its ability to bind to the different anti-TWEAKR antibodies. N-terminally, amino acids 28 to 33 and C-terminally amino acids 69 to 80 were deleted, thus the cysteine rich domain with disulfide bridges between Cys36-Cys49, Cys52-Cys67 and Cys55-Cys64 remains intact (compare FIG. 2). Both constructs, the full ectodomain 28-80 including the N- and C-terminus and the truncated ectodomain 34-68 were expressed and purified as Fc fusion proteins TPP-2202 and TPP-2203, respectively.
(§5) To analyze for binding, 1 μg/ml of the respective dimeric TWEAKR-Fc construct were coated and, 0.3 μg/ml and 0.08 μg/ml of biotinylated IgG were used as soluble binding partner. Detection was done with Streptavidin-HRP and Amplex-Red substrate. IgGs were biotinylated using an approximately 2-fold molar excess of biotin-LC-NHS (Pierce; Cat. No. 21347) according to manufacturer's instructions and desalted using Zeba desalting columns (Pierce; Cat. No. 89889).

[10] = target: T3, TWEAKR(34-68)-Fc fusion protein (TPP-2203) (Homo sapiens, UniProt Q9NP84); experiment: ELISA with TWEAKR cysteine rich domain; format: binding; conditions: coating 1 μg/ml; 0.08 and 0.3 μg/ml biotinylated IgG
T3 construct: the truncated ectodomain 34-68 were expressed and purified as Fc fusion proteins; made in house
Excerpt: as §4, §5

[11] = target: T4, TWEAKR(28-68)-HIS (TPP-1984) (Homo sapiens, UniProt Q9NP84); experiment: ELISA with C-terminally truncated TWEAKR ectodomain; format: binding; conditions: coating 1 μg/ml; 0.08 and 0.3 μg/ml biotinylated IgG
T4 construct: Extracellular domain with C-terminal truncation (28-68) fused to HIS6 tag; made in house
Procedure: as §5

[12] = test system: Lovo cells; experiment: Inhibition of proliferation (Cell Titer Glo); format: cell-based, human; conditions: 72h, 100 μg/ml antibody or *100 ng/ml TWEAK
Procedure: (§6) Therefore cells were plated in 96well plates in 750 assay medium (growth media from Table 21, plus 100 ng/ml IFN gamma for 786-O cells) at the following cell numbers: WiDr cells 3000 cells/well, 786-O cells 2500 cells/well. 24 h later cells were incubated with anti-TWEAKR antibodies (see Table 26), recombinant human TWEAK or isotype control IgG (not shown) at the indicated concentrations (antibodies from 0.03-300 μg/ml, TWEAK 100 or 300 ng/ml). At the time of antibody addition cell viability was determined in sister plates (time point zero): therefore 750/well CTG solution (Promega Cell Titer Glo solution (catalog # G755B and G756B) was added to the cells, incubated for 10 minutes and luminescence was read on a Victor V (Perkin Elmer). 96 h after incubation with the agents, cell viability was determined in the assay plates by addition of 100 μl/well CTG solution, 10 min incubation and reading of luminescence. Proliferation in control wells was calculated by subtracting time zero values from the luminescence values in the untreated control wells. % of cell proliferation was calculated in the compound treated wells as compared to the untreated control wells.
(§7) To evaluate, whether this strong anti-proliferative activity can also be observed in a broader cell panel, in addition LOVO, NCI-H1975, SW-480 (all 3000 cells/well), HT-29 (4000 cells/well), A253 and SK-OV3 (both 2500 cells/well) cells were incubated with 100 μg/ml anti-TWEAKR antibodies or TWEAK ligand for the time periods as indicated in Table 27. All cells were seeded in the growth media indicated in Table 21 and for all cells except for WiDr cells 100 ng/ml IFNgamma was added to the assay medium when seeding the cells. The percentage of growth inhibition for treated cells as compared to proliferation in untreated control cells was measured and calculated as described above. As shown in Table 27 the antibodies of the current invention are more efficacious as compared to other known antibodies in inhibiting proliferation of various cancer cell lines at 100 μg/ml. In most experiments the antibodies of the current invention also show equal or stronger efficacy as compared to 100-300 ng/ml TWEAK ligand. Thus, the antibodies described in this invention are unique in their activity to induce apoptosis and proliferation inhibition in a broad panel of cancer cell lines.

[13] = test system: NCI-H1975 cells; experiment: Inhibition of proliferation (Cell Titer Glo); format: cell-based, human; conditions: 72h, 100 μg/ml antibody or *100 ng/ml TWEAK
Procedure: as §6, §7

[14] = test system: SW480 cells; experiment: Inhibition of proliferation (Cell Titer Glo); format: cell-based, human; conditions: 72h, 100 μg/ml antibody or *100 ng/ml TWEAK
Procedure: as §6, §7

[15] = target: TWEAKR (Homo sapiens, UniProt Q9NP84); conditions: published data, read-out: KD / binding affinity to TWEAKR (published), cited from earlier work

Row | Compound | Final T/C [1] | Final T/C [2] | Final T/C [3] | Final T/C [4] | Final T/C [5] | Final T/C [6] | Final T/C [7] | ka [8] | kd [8] | ELISA binding to full ectodomain (28-80) [9] | ELISA binding to N- and C-terminally truncated construct (34-68) [10] | ELISA binding to C-terminally truncated ectodomain (28-68) [11] | % Inhibition of proliferation [12] | % Inhibition of proliferation [13] | % Inhibition of proliferation [14] | pKd ([15]; listed as BIIB036/P4A8) | pKd [15]
1 | O=c1[nH]cc(F)c(=O)[nH]1 [5-FU, 5-fluorouracil] | 0.97 | 0.28 | 0.45 | 0.48 | – | – | – | – | – | – | – | – | – | – | – | – | –
2 | CCc1c2c(nc3ccc(OC(=O)N4CCC(N5CCCCC5)CC4)cc13)-c1cc3c(c(=O)n1C2)COC(=O)[C@]3(O)CC [Irinotecan] | 0.66 | – | 0.37 | 0.17 | 0.47 | 0.52 | 0.11 | – | – | – | – | – | – | – | – | – | –
3 | O=C1[O][Pt]2([NH][C@@H]3CCCC[C@H]3[NH]2)[O]C1=O [Oxaliplatin, oxaliplatin] | 1.29 | 1.08 | – | 0.81 | 0.89 | 0.76 | 0.78 | – | – | – | – | – | – | – | – | – | –
4 | P4A8(TPP-1324): reference agonistic anti-TWEAKR antibody, human IgG1, variable domains from WO2009/140177; SEQ ID NO 125/126 [reference compound] | – | – | – | – | – | – | – | 1.2e+06 M⁻¹ s⁻¹ | 0.0027 s⁻¹ | saturated binding | impaired binding | impaired binding | −5% | 20% | 5% | 8.77 | 8.59
